Usually IC50 stands for the concentration needed to halve the response being measured. A higher IC50 goes with weaker potency. The Ki is the equilibrium dissociation constant of an inhibitor or competing ligand from its target.

SMILES strings stand for the structures.

Assay [1] concerns the target T1, Sodium-dependent dopamine transporter (Homo sapiens, UniProt Q01959). As to the kind of experiment: Binding affinity towards dopamine transporter (DAT) by using [3H]WIN-35428 as radioligand.
Assay [2] concerns the target T2, Sodium-dependent serotonin transporter (Homo sapiens, UniProt P31645). Nature of the assay: Binding affinity towards serotonin transporter (SERT) by using [3H]paroxetine as radioligand.
Assay [3] addresses T2, Sodium-dependent serotonin transporter. As to the kind of experiment: Binding affinity towards serotonin transporter (SERT).
Assay [4] shares this target. As to the kind of experiment: In vitro competitive binding versus [3H]citalopram in murine kidney cells transfected with cDNA for human serotonin transporter (SERT). It counts as cell-based.
Assay [5] deals with Sodium-dependent noradrenaline transporter (Homo sapiens, UniProt P23975). Nature of the assay: In vitro competitive binding versus [3H]- […] in murine kidney cells transfected with cDNA for human norepinephrine transporter (NET). It counts as cell-based.
Chain of Sodium-dependent noradrenaline transporter (P23975 whole entry): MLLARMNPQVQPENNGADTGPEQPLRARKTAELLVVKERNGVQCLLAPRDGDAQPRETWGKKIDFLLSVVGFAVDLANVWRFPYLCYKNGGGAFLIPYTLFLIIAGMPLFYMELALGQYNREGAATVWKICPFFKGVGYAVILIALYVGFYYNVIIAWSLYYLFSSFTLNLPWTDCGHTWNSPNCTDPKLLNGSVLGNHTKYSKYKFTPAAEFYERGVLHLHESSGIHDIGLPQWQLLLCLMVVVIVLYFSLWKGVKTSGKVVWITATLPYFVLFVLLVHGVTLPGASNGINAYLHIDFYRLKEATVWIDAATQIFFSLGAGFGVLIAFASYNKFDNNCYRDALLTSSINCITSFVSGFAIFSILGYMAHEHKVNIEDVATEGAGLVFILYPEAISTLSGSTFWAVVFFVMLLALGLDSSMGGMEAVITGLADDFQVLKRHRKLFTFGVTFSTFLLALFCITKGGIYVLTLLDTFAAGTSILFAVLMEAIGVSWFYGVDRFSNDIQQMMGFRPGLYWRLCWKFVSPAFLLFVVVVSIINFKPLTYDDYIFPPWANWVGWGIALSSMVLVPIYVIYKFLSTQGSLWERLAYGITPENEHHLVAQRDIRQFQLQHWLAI
Assay [6] concerns the target T1, Sodium-dependent dopamine transporter. As to the kind of experiment: In vitro competitive binding versus [N-methyl-3H]WIN-35428 in murine kidney cells transfected with cDNA for human dopamine transporter (DAT). It counts as cell-based.
In assay [7] the target is T2, Sodium-dependent serotonin transporter. Nature of the assay: In vitro competitive binding versus [3H]-citalopram in murine kidney cells transfected with cDNA for human serotonin transporter (SERT). It counts as cell-based.

T1 sequence (Q01959 whole entry): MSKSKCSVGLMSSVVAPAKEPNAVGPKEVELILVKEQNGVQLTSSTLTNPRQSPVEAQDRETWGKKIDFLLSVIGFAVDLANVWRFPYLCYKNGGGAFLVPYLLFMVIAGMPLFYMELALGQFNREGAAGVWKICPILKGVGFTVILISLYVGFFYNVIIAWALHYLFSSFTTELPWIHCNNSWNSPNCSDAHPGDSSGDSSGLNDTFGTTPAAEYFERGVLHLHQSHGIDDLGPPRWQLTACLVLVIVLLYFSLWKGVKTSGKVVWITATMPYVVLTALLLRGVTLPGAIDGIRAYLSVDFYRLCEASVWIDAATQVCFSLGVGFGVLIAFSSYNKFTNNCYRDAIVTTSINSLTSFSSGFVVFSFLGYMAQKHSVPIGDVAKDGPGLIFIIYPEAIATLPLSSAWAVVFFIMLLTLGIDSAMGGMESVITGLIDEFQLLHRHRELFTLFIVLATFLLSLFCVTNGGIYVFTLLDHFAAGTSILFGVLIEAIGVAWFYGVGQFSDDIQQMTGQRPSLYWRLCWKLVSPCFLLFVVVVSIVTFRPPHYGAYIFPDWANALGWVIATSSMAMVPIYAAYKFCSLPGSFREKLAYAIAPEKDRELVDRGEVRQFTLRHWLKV
T2 sequence (P31645 whole entry): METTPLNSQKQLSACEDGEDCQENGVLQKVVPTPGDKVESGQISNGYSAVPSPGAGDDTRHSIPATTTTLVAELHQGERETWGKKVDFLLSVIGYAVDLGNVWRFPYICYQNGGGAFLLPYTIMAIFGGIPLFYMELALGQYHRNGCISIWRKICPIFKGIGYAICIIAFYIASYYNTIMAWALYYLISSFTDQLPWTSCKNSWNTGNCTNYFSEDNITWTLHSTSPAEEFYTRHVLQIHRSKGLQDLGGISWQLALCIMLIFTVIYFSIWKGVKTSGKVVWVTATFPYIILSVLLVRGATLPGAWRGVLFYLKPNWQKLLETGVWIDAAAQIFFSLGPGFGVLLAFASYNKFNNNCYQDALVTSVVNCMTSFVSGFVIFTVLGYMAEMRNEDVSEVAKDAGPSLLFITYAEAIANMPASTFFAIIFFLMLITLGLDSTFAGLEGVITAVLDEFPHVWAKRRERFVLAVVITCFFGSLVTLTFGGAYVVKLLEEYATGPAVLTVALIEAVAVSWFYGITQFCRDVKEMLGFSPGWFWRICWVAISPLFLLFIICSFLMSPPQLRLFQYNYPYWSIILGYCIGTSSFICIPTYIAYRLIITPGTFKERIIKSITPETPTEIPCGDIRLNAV

`C/C=C/c1ccc([C@H]2CC3CCC([C@H]2C(=O)OC)N3C)cc1` (stereo not given in full): the IC50 in assay [1] is 28 nM; in assay [2], 1.3 nM.

In turn, `C=Cc1ccc([C@H]2CC3CCC(N3)[C@H]2C(=O)CC)cc1` (stereo not given in full) yielded an IC50 in assay [2] of 0.32 nM.

As for `C/C=C\c1ccc([C@H]2CC3CCC([C@H]2C(=O)OC)N3C)cc1` (stereo not given in full), the results for the concentration for half-maximal inhibition (IC50) in assay [1] and in assay [2] were 32 nM and 1.15 nM, respectively.

As for `COC(=O)[C@@H]1C2CC[C@H](C[C@@H]1c1ccc(I)cc1)N2C`, the IC50 in assay [3] was 4.2 nM. For the same compound, the Ki in assay [4] stood at 0.67 nM; in assay [5] it was 1.4 nM; in assay [6], 0.48 nM.

`C=C(C)c1ccc([C@H]2CC3CCC(N3)[C@H]2C(=O)CC)cc1` (stereo not given in full) had an IC50 in assay [2] of 0.16 nM.

In the case of `COC(=O)[C@@H]1C2CCC(C[C@@H]1c1ccc(/C=C/I)cc1)N2` (stereo not given in full), the Ki in assay [5] worked out at 32 nM; in assay [7], 1.15 nM; in assay [6], 1.88 nM.

In assay [3], `COC(=O)[C@@H]1C2CCC(C[C@@H]1c1ccc(I)cc1)N2` (stereo not given in full) registered an IC50 of 0.36 nM. The Ki in assay [6] amounted to 0.12 nM.

Values taken from ChEMBL document CHEMBL1136726, “Synthesis and characterization of iodine-123 labeled 2beta-carbomethoxy-3beta-(4'-((Z)-2-iodoethenyl)phenyl)nortropane. A ligand for in vivo imaging of serotonin transporters by single-photon-emission tomography” (J Med Chem, 2003).
